Experimental data taken from paper PMC7894603 (Science translational medicine, 2020).

Test system: Kras and Trp53 mutant (KP) lung adenocarcinoma mouse model
Assay type: in vivo
Conditions: IT, urine 60-120 min; for change of KP/control reporter difference over 5, 7.5 and 10.5 weeks: MeanNormPARKP/MeanNormPARControl

| Sequence | change of KP/control reporter difference over 5, 7.5 and 10.5 weeks | urinary reporter in KP versus healthy mice (10.5 weeks after tumor initiation, mean-normalized PAR) |
| --- | --- | --- |
| GGLGPKGQTGC [PP07] | amplified over time | – |
| GGSGSKIIGGGC [PP11] | amplified over time | most significantly enriched reporter |
